Assay results reported in PubChem BioAssay (NCI).
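Exposure lasted 48 hours, with cells grown in 96-well plates and compounds tested at five concentrations. Here, GI50 denotes the concentration required for 50% inhibition of growth. At the TGI there is no net growth.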

Columns and labels:
Experiment in all cases: DTP human tumour cell line panel, 48 h
M14 melanoma = system: M14 melanoma
HCC-2998 colon = system: HCC-2998 colon
DLD-1 colon = system: DLD-1 colon
HCT-116 colon = system: HCT-116 colon
U251 CNS = system: U251 CNS
K-562 leukemia = system: K-562 leukemia
MDA-MB-435 = system: MDA-MB-435
T-47D breast = system: T-47D breast
MCF7 breast = system: MCF7 breast
KM20L2 colon = system: KM20L2 colon

| SMILES | TGI (M14 melanoma) | TGI (HCC-2998 colon) | TGI (DLD-1 colon) [µM] | TGI (HCT-116 colon) | TGI (U251 CNS) | TGI (K-562 leukemia) | GI50 (M14 melanoma) | GI50 (HCC-2998 colon) | GI50 (MDA-MB-435) | TGI (MDA-MB-435) | GI50 (T-47D breast) | TGI (T-47D breast) | GI50 (HCT-116 colon) | GI50 (U251 CNS) | GI50 (MCF7 breast) | TGI (MCF7 breast) | GI50 (K-562 leukemia) | TGI (KM20L2 colon) [µM] |
| --- | --- | --- | --- | --- | --- | --- | --- | --- | --- | --- | --- | --- | --- | --- | --- | --- | --- | --- |
| CN1C(=Nc2ccccc2)SC1=Nc1ccccc1 | > 100 µM | > 100 µM | > 100 | > 100 µM | > 100 µM | > 100 µM |  |  |  |  |  |  |  |  |  |  |  |  |
| c1ccc2[nH]c(-c3ccc(-c4nccc5c4[nH]c4ccccc45)cc3)nc2c1 | 3.57 µM | 15.9 µM |  | 10.4 µM | 7.83 µM | 5.47 µM | 1.79 µM | 3.96 µM | 1.92 µM | 4.27 µM | 2.02 µM | 6.19 µM | 2.83 µM | 2.74 µM | 3.56 µM | 17.2 µM | 2.34 µM |  |
| CN(C)CC/C(=N\Nc1ccc([N+](=O)[O-])cc1)c1ccccc1 | 30.8 µM |  | 27.2 | 24 µM | 25.5 µM | 15.9 µM |  |  |  |  |  |  |  |  |  |  |  | 15.2 |
| CN(C)CCN1C(=O)c2ccccc2N(C)c2ccccc21 | > 100 µM | > 100 µM |  | > 100 µM | > 100 µM | > 100 µM | > 100 µM | > 100 µM | > 100 µM | > 100 µM | > 100 µM | > 100 µM | > 100 µM | > 100 µM | > 100 µM | > 100 µM | > 100 µM |  |
| CCC(C)(CC(C)(C)C(=O)NCC(=O)NC(Cc1ccccc1)C(=O)NC(Cc1ccccc1)C(=O)NCC(=O)NC1CC(OC2CC(O)(C(=O)CO)Cc3c(O)c4c(c(O)c32)C(=O)c2c(OC)cccc2C4=O)OC(C)C1O)C(=O)NCC(C)O (centres undefined) | > 150 µg/mL | > 150 µg/mL |  | > 150 µg/mL | > 150 µg/mL | > 150 µg/mL | 120 µg/mL | 116 µg/mL | > 150 µg/mL | > 150 µg/mL | 70.3 µg/mL | > 150 µg/mL | 55.3 µg/mL | 51.2 µg/mL | 22 µg/mL | > 150 µg/mL | 86.3 µg/mL |  |
| Cc1cc2c(cc1C)N(C(=O)CCl)CC(=O)N2 | 8.35 µM | 8.91 µM |  | 9.77 µM | 4.25 µM | 29.4 µM | 2.2 µM | 2.88 µM | 2.67 µM | 10.2 µM | 1.97 µM | 3.99 µM | 2.53 µM | 1.92 µM | 2.45 µM | 10.9 µM | 3.39 µM |  |
| CC/C=C1/C(=O)C=C[C@@H]1C/C=C\CCCC(=O)OC | 10.8 µM | 3.83 µM |  | 2.4 µM | 9.96 µM | > 100 µM | 2.8 µM | 2.13 µM | 1.86 µM | 4.6 µM | 3.79 µM | 16.7 µM | 0.447 µM | 2.75 µM | 1.21 µM | 11 µM | 0.767 µM |  |
| C#Cc1c(F)ccc2cc(O)cc(-c3ncc4c(N5CC6CCC(C5)N6)nc(OC[C@@]56CCCN5C[C@H](F)C6)nc4c3F)c12 | 29.6 µM | 17.5 µM |  | 14 µM | 31.5 µM | > 65.5 µM | 14 µM | 1.32 µM | 13.6 µM | 27.3 µM | 16.3 µM | 40.1 µM | 2.62 µM | 10.9 µM | 8.48 µM | 24 µM | 8.12 µM |  |
| COc1ccc(-c2cn(-c3cc(OC)c(OC)c(OC)c3)c(SCc3ccccc3)n2)cc1OC | > 100 µM | > 100 µM |  | > 100 µM | > 100 µM | > 100 µM | > 100 µM | 84.7 µM | > 100 µM | > 100 µM | 41.5 µM | > 100 µM | > 100 µM | > 100 µM | > 100 µM | > 100 µM | > 100 µM |  |
| COc1ccc(/C(COc2ccc3c(=O)cc(-c4ccccc4)oc3c2)=N\O)cc1 | > 50 µM | > 50 µM |  | > 50 µM | > 50 µM | > 50 µM | 29.1 µM | 16.5 µM | 6.77 µM | 23.9 µM | 21.7 µM | > 45.8 µM | 21.2 µM | 14.8 µM | 9.68 µM | > 32.2 µM | 17.5 µM |  |
| CC(C)(C)OC(=O)N1CCN(CCn2cc(C(F)(F)F)c3c(Cl)ncnc32)CC1 | 3.49 µM | 4.53 µM |  | 3.15 µM | 3.57 µM | 14.1 µM | 1.77 µM | 2.05 µM | 1.84 µM | 3.65 µM | 11.5 µM | 34.5 µM | 1.68 µM | 2.01 µM | 12.3 µM | 32.1 µM | 3.22 µM |  |
| COc1ccc2cc(C(=O)/C=C/c3ccc(Cl)cc3Cl)ccc2c1 | 28 µM | 29.1 µM |  | 10.3 µM | 36.2 µM | 14.5 µM | 8.75 µM | 15.3 µM | 4.5 µM | 17.7 µM | 20.8 µM | 66.8 µM | 3.04 µM | 16.7 µM | 18.1 µM | > 100 µM | 2.53 µM |  |
| CC(C)N(Cc1ccccc1)c1c(S)ssc1=S | > 100 µM | 74 µM |  | 26.8 µM | 15.9 µM | 3.81 µM | 4.67 µM | 4.36 µM | 0.694 µM | 18.5 µM | 1.17 µM | 18.6 µM | 2.72 µM | 2.58 µM | 1.57 µM | 5.02 µM | 0.941 µM |  |
| O=C(CCCCCCCCC(=O)N/N=C\c1ccccc1O)N/N=C\c1ccccc1O | 1.78 µM | > 100 µM |  | 15.2 µM | 9.14 µM | 27.8 µM | 0.306 µM | 2.92 µM | 0.704 µM | > 100 µM | 2.89 µM | > 49.4 µM | 0.459 µM | 0.308 µM | 1.99 µM | > 100 µM | 0.398 µM |  |
| CCN(CC)CCCCNc1c2ccccc2[n+](C)c2c1[nH]c1ccccc12 | 4.64 µM | 0.763 µM |  |  | 4.46 µM | 3.9 µM | 1.41 µM | 0.27 µM | 0.6 µM | 2.16 µM | 0.178 µM | 1.1 µM | 0.356 µM | 0.238 µM | 0.256 µM | 3.63 µM | 0.379 µM |  |
